Reference: patent US10829484B2, “Compounds and methods for kinase modulation, and indications therefor” (Plexxikon Inc., priority 2015, dated 2020)
Substitutions are numbered along the chain they refer to. Where two headings read alike, the source gives them in different places.

Key:
[1] = target: T1, BaF3-FLT3-ITD-F691L (Homo sapiens, UniProt P36888, INS600HVDFREYEYD/F691L, cells depend on it); experiment: CTB viability assay CS0047, BaF3-FLT3-ITD-F691L; assay type: cell-based, murine; conditions: CellTiter Blue viability, 72 hours
T1 sequence (P36888 with tags, fused parts or gaps INS600HVDFREYEYD/F691L): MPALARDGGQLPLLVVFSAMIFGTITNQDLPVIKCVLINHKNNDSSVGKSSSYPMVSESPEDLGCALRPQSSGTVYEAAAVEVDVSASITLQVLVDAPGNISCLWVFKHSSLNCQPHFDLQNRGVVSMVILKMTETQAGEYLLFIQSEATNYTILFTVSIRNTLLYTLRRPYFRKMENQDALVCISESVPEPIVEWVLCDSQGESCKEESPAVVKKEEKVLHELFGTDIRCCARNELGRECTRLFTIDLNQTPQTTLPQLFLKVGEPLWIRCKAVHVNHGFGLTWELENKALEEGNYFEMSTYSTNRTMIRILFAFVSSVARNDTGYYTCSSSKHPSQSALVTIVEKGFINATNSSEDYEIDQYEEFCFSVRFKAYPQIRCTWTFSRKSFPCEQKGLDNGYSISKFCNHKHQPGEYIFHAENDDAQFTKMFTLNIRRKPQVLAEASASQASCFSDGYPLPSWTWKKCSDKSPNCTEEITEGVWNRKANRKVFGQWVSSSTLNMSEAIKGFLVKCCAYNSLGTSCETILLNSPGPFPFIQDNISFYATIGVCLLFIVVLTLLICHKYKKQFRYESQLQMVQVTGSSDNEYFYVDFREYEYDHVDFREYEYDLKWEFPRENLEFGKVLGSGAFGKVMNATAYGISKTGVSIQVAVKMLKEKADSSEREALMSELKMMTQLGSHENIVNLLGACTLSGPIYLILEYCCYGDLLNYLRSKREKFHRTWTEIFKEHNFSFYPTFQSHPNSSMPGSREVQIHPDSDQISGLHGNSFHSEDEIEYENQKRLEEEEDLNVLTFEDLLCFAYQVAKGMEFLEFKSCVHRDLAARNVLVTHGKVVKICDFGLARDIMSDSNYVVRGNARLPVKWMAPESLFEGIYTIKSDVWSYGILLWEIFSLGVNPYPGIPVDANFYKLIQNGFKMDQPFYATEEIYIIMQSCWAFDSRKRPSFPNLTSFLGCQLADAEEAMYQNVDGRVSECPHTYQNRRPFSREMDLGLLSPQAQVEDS
Text: Gene constructs containing the human FLT3 sequences FLT3-ITD, FLT3-ITD-F691L, FLT3-ITD-D835V and FLT3-D835V were synthesized by reverse translation of the human protein sequences, with codons optimized for mammalian expression. Sequence of the internal tandem duplication (ITD) was based on the MV4-11 ITD sequence. Synthetic DNA constructs were cloned into the pMSCV puro retroviral vector (Clontech) and transfected into the EcoPack2-293 packaging cell line (Clontech) to generate retroviruses that contain the different FLT3 constructs. Viruses were transduced into the IL-3-dependent, murine […] cell line, Ba/F3, and selected for puromycin resistance and IL-3 independence. All cell lines were cloned by limiting dilution and clones were used for all subsequent cell assays. Overexpression of the FLT3 mutants in the Ba/F3 cells results in constitutive phosphorylation of the exogenous FLT3 protein, which is required for IL-3 independence.
Cell lines were serum starved overnight in media containing 0.5% FBS, plated at 15,000 cells/well in 96-well white-walled tissue culture plates, and 3-fold serial dilutions of test compounds of Formula I were added for 72 hours at 37° C. CellTiter Blue (CTB, Promega) was added and incubated for an additional 3 hours at 37° C. Fluorescence was read at 560 nm excitation, 590 nm emission. Wells with CTB+media only were used for background subtraction, and the fluorescence of compound-treated cells was normalized to the fluorescence of DMSO-treated cells. IC50s were determined using Igor Pro software. All compounds are assayed in duplicate cell plates.

[2] = target: T2, BaF3-FLT3-ITD-D835V (Homo sapiens, UniProt P36888, INS600HVDFREYEYD/D835V, cells depend on it); experiment: CTB viability assay CS0048, BaF3-FLT3-ITD-D835V; assay type: cell-based, murine; conditions: CellTiter Blue viability, 72 hours
T2 sequence (P36888 with tags, fused parts or gaps INS600HVDFREYEYD/D835V): T1 sequence (P36888 with tags, fused parts or gaps INS600HVDFREYEYD/F691L) with L701F, D845V
Procedure, shortened: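 Murine Ba/F3 cells made IL-3-independent by retroviral human FLT3-ITD (MV4-11 ITD), ±F691L or D835V, serum-starved overnight in 0.5% FBS. 3-fold compound dilutions applied 72 h at 37° C; viability by CellTiter Blue fluorescence (ex 560/em 590 nm), normalized to DMSO, IC50 from duplicate plates.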

[3] = Table 3, read-out: Cell Assay: CS0047: BaF3-FLT3-ITD-F691L CTB: IC50
[4] = Table 3, read-out: Cell Assay: CS0048: BaF3-FLT3-ITD-D835V CTB: IC50
[5] = BaF3-FLT3-ITD-F691L cells, read-out: Cell Assay: CS0047:BaF3-FLT3-ITD-F691L CTB:IC50
[6] = BaF3-FLT3-ITD-D835V cells, read-out: Cell Assay: CS0048: BaF3-FLT3-ITD-D835V CTB:IC50
[7] = Table 4, compounds from WO 2011/022473, read-out: Cell Assay: CS0047: BaF3-FLT3-ITD-F691L CTB: IC50
[8] = Table 4, compounds from WO 2011/022473, read-out: Cell Assay: CS0048: BaF3-FLT3-ITD-D835V CTB: IC50

Structure (SMILES)	GI50 [1, 7]	GI50 [2, 8]	other results
O=C(Cc1ccc(-c2cnc(Nc3ccccc3)nc2)cc1F)Nc1cc(C2(C(F)(F)F)CC2)on1			GI50 [1, 3]: 0.728 nM; GI50 [2, 4]: 0.772 nM
Cn1cc(Nc2ncc(-c3ccc(CC(=O)Nc4cc(C5(C(F)(F)F)CC5)on4)c(F)c3)cn2)cn1			GI50 [1, 3]: 0.189 nM; GI50 [2, 4]: 0.259 nM
Cc1nn(C)c(C)c1Nc1ncc(-c2ccc(CC(=O)Nc3cc(C4(C(F)(F)F)CC4)on3)c(F)c2)cn1 [P-029, 2-[2-fluoro-4-[2-[(l,3,5-trimethylpyrazol-4-yl)amino]pyrimidin-5-yl]phenyl]-N-[5-[1-(trifluoromethyl)cyclopropyl]isoxazol-3-yl]acetamide]			GI50 [1, 5]: 10 to 50 nM; GI50 [2, 6]: 10 to 50 nM
O=C(O)Cn1cc(Nc2ncc(-c3ccc(CC(=O)Nc4cc(C5(C(F)(F)F)CC5)on4)c(F)c3)cn2)cn1 [P-078, 2-[4-[[5-[3-fluoro-4-[2-oxo-2-[[5-[1-(trifluoromethyl)cyclopropyl]isoxazol-3-yl]amino]ethyl]phenyl]pyrimidin-2-yl]amino]pyrazol-1-yl]acetic acid]			GI50 [1, 5]: 10 to 50 nM; GI50 [2, 6]: 50 to 100 nM
CC(C)(c1cc(NC(=O)Cc2ccc(-c3ccc(NCCN4CCOCC4)nc3)cc2)no1)C(F)(F)F [reference compound]	73.9 nM	145 nM	
CNc1ccc(-c2ccc(CC(=O)Nc3cc(C(C)(C)C)on3)cc2)cn1 [reference compound]	43.2 nM	92 nM	
CCNc1ccc(-c2ccc(CC(=O)Nc3cc(C(C)(C)C)on3)cc2)cn1 [reference compound]	45.4 nM	94.2 nM	
CC(C)(C)c1cc(NC(=O)Nc2ccc(-c3cnc(NC4CCOCC4)nc3)cn2)no1 [reference compound]	110 nM	673 nM	
CC(C)(C)c1cc(NC(=O)Nc2ccc(-c3cnc(NC4CC4)nc3)cn2)no1 [reference compound]	77.8 nM	585 nM	
